From patent publication US20050233058A1, “Aminoacid derivatives of dicarboxylic acids as flavor ingredients” (priority 2004, published 2005)

Experiment: Organoleptic description of the compounds (umami, mouthfeel)
Settings: for Additional feeling imparted: in a meet type application

SMILES | Additional feeling imparted | Taste / organoleptic character of the compound
O=C(O)CCCC(=O)N[C@@H](CCC(=O)O)C(=O)O [glutaryl-Glu, N-(4-carboxybutanoyl)L-glutamic acid] | slightly more fatty feeling | –
CC(C)C[C@H](NC(=O)CCC(=O)O)C(=O)O [succinoyl-Leu, N-(3-carboxypropionyl)leucine] | – | slightly more acidic and slightly less umami taste than the one of succinoyl-Glu
O=C(O)CCC(=O)N[C@@H](CCC(=O)O)C(=O)O [succinoyl-Glu, N-(3-carboxypropionyl)-glutamic acid] | – | slightly acidic note together with a well perceivable umami taste or character having a broth connotation
O=C(O)/C=C\C(=O)N[C@@H](CCC(=O)O)C(=O)O [Maleyl-Glu, (Z)-N-(3-carboxy-2-propenoyl)-L-glutamic acid] | slightly more juicy feeling | –
CC(C)C[C@H](NC(=O)CCCC(=O)O)C(=O)O [Glutaryl-Leu, N-(4-carboxybutanoyl)-L-leucine] | slightly more fatty feeling | –
